For data set [1], the system named is SARS-CoV-2. Kind of data set: Time of addition assay, SARS-CoV-2 viral RNA. Conditions: 15 μM RDV, 15 μM CLQ, 10 μM Oxy210, 10 μM Oxy133. In kind it is cell-based.
For data set [2], the system named is SARS-CoV-2. Put plainly: SARS-CoV-2-induced cytopathic effect (CPE) in VeroE6/TMPRSS2 cells. In kind it is cell-based. The settings on record: for virus-induced CPE: 48 h post-inoculation, 10 μM RDV, 30 μM cholesterol, 30 μM 7-KC, 10 μM Oxy133, 10 μM Oxy210, MOI 0.001; for SARS-CoV-2-induced cytopathic effect (CPE): remdesivir 20 uM, 7-ketocholesterol 40 uM, 27-hydroxycholesterol 20 uM.

Data set [3] relates to SARS-CoV-2. In kind it is cell-based.
A further data set has as its system SARS-CoV-2 Wk-521 strain. Kind of data set: SARS-CoV-2 infection assay, viral RNA in culture supernatant (VeroE6/TMPRSS2 cells). In kind it is cell-based. The settings on record: for IC90 / pIC50: SARS-CoV-2 viral RNA in culture supernatant, VeroE6/TMPRSS2 cells; for IC90 / pIC50 / production of viral RNA with signaling pathway inhibitors / viral RNA in the culture supernatant: 24 h post-inoculation; for IC90: read-out: IC90; for pIC50: read-out: IC50; for anti-SARS-CoV-2 activity: cell-based assay, VeroE6/TMPRSS2; for SARS-CoV-2 propagation in cultured cells: statement in words; for production of viral RNA with signaling pathway inhibitors: 10 μM; for viral RNA in the culture supernatant: natural oxysterols up to 30 μM, semi-synthetic up to 15 μM.

Another data set has as its system VeroE6/TMPRSS2 cells. The settings on record: MTT assay, VeroE6/TMPRSS2 cells; for CC50: 24 h. (Formazan colour is commonly taken as a measure of viable cells.)
Where [4] appears, read: Severe acute respiratory syndrome coronavirus 2, VeroE6/TMPRSS2, 24 h.
Where [5] appears, read: Severe acute respiratory syndrome coronavirus 2.

pIC50: −log10 of the molar value. “Also recorded” adds a separate entry of the source. Like-named read-outs stand apart in the source and are kept apart here. Bounds are passed on as bounds.

In general, IC90 refers to the concentration at which the effect reaches the 90% level. The term pIC50 denotes −log10 of the IC50, conventionally taken in molar units. For orientation: CC50 means the concentration that lowers cell viability or growth by half. Higher therefore signals lower toxicity to the cells.

On to `CCN(CC)CCCC(C)Nc1ccnc2cc(Cl)ccc12` (stereo not shown) [CLQ, chloroquine, reference compound], for which the “viral RNA, compound present at entry” value in the data set with SARS-CoV-2 [1] (1 h inoculation plus 2 h) is given as “showed the most inhibitory effect”.

In the case of `CC(C)CCC[C@@H](C)[C@H]1CC[C@H]2[C@@H]3C(=O)C=C4C[C@@H](O)CC[C@]4(C)[C@H]3CC[C@]12C` [Oxy 7-KC, 7-ketocholesterol, reference compound], the “virus-induced CPE” value in the data set on SARS-CoV-2 [2] is listed as “reduced the SARS-CoV-2-induced CPE”. For the same compound, in the data set with SARS-CoV-2 [2] (48 h, VeroE6/TMPRSS2), the “SARS-CoV-2-induced cytopathic effect (CPE)” value was “inhibited SARS-CoV-2-induced cytopathic effect”. For the same compound, the “SARS-CoV-2 propagation / spread of infection (viral N protein, immunofluorescence)” value with SARS-CoV-2 [3] is reported as “reduced”. Moreover, the 90% effect concentration (IC90) in the data set with SARS-CoV-2 Wk-521 strain (setting [4]) is greater than 30 µM. Besides, the negative-log IC50 (pIC50) in the data set with SARS-CoV-2 Wk-521 strain (setting [5]) was 4.84. Besides, in the data set with SARS-CoV-2 Wk-521 strain, the “anti-SARS-CoV-2 activity” value is “modest anti-SARS-CoV-2 activities” and the “SARS-CoV-2 propagation in cultured cells” value was “substantially inhibited SARS-CoV-2 propagation”. For the same compound, the CC50 with VeroE6/TMPRSS2 cells was greater than 30 µM.

Take `CS(=O)(=O)c1ccc(C(=O)Nc2ccc(Cl)c(-c3ccccn3)c2)c(Cl)c1` [GDC0449, reference compound]: the “production of viral RNA with signaling pathway inhibitors” value with SARS-CoV-2 Wk-521 strain is on record as “did not decrease the viral RNA levels; also recorded: lack of antiviral activity”.

As for `CC(C)CC[C@H](O)[C@@H](C)[C@H]1CC[C@H]2[C@@H]3CC=C4C[C@@H](O)CC[C@]4(C)[C@H]3CC[C@]12C` [22(S)-OHC, 22(S)-hydroxycholesterol, reference compound], in the data set with SARS-CoV-2 Wk-521 strain, the “viral RNA in the culture supernatant” value was “did not show apparent reductions in viral RNA”. Moreover, in the data set with SARS-CoV-2 Wk-521 strain (setting [4]), the concentration for an effect of 90% (IC90) was greater than 30 µM. Besides, the pIC50 in the data set with SARS-CoV-2 Wk-521 strain (setting [5]) is less than 4.52. In the data set on VeroE6/TMPRSS2 cells, this compound came in with a CC50 greater than 30 µM.

As for `C[C@@H](CO)CCC[C@@H](C)[C@H]1CC[C@H]2[C@@H]3CC=C4C[C@@H](O)CC[C@]4(C)[C@H]3CC[C@]12C` [Oxy 27-OHC, 27-hydroxycholesterol, reference compound], the “SARS-CoV-2-induced cytopathic effect (CPE)” value in the data set on SARS-CoV-2 [2] (48 h, VeroE6/TMPRSS2) is “inhibited SARS-CoV-2-induced cytopathic effect”. The concentration for an effect of 90% (IC90) with SARS-CoV-2 Wk-521 strain (setting [4]) is greater than 30 µM. Also, in the data set with SARS-CoV-2 Wk-521 strain (setting [5]), the pIC50 was 5.46. For the same compound, in the data set with SARS-CoV-2 Wk-521 strain, the “anti-SARS-CoV-2 activity” value was “modest anti-SARS-CoV-2 activities” and the “SARS-CoV-2 propagation in cultured cells” value is reported as “substantially inhibited SARS-CoV-2 propagation”. The compound also gave a cytotoxic concentration (CC50) in the data set with VeroE6/TMPRSS2 cells greater than 30 µM.

Turning to `C[C@]12CC[C@H](O)C[C@@H]1CC[C@@H]1[C@@H]2CC[C@@]2(C)[C@H]1CC[C@@H]2[C@](C)(O)CCc1ccc(F)cc1` [Oxy186, (3S,5S,8R,9S,10S,13S,14S,17S)-17-((R)-4-(4-fluorophenyl)-2-hydroxybutan-2-yl)-10,13-dimethylhexadecahydro-1H-cyclopenta[a]phenanthren-3-ol], the SARS-CoV-2-induced cytopathic effect result in the data set on SARS-CoV-2 [2] (oxy8 7.5 uM, oxy16 20 uM, oxy186 20 uM, oxy210 10 uM, 48 h, VeroE6/TMPRSS2) is recorded as “protected cells from cytopathic effect”. Besides, in the data set with SARS-CoV-2 Wk-521 strain, the “viral RNA in the culture supernatant” value was “reduced viral RNA level in a dose-dependent manner”. Besides, the 90% effect concentration (IC90) with SARS-CoV-2 Wk-521 strain (setting [4]) was greater than 15 µM. In addition, the negative logarithm of the IC50 (pIC50) in the data set with SARS-CoV-2 Wk-521 strain (setting [5]) was 5.13. Besides, the “maximum reduction in viral RNA as compared to control” value in the data set on SARS-CoV-2 Wk-521 strain (at 12 μM) was determined as 83%. In addition, in the data set with VeroE6/TMPRSS2 cells, the half-maximal cytotoxic concentration (CC50) is greater than 15 µM and the “cytotoxicity / cell viability” value is on record as “No significant cytotoxicity”.

As to `CCCCCC[C@](C)(O)[C@H]1CC[C@H]2[C@@H]3C[C@H](O)[C@H]4C[C@@H](O)CC[C@]4(C)[C@H]3CC[C@@]21C` [Oxy133, (3S,5S,6S,8R,9S,10R,13S,14S,17S)-17-((S)-2-hydroxyoctan-2-yl)-10,13-dimethyl hexadecahydro-1H-cyclopentalalphenanthrene-3,6-diol], the “virus-induced CPE” value in the data set on SARS-CoV-2 [2] is on record as “blocked when treated with Oxy210 but not Oxy133”. Besides, the “SARS-CoV-2 propagation / spread of infection (viral N protein, immunofluorescence)” value in the data set with SARS-CoV-2 [3] was “blocked when treated with Oxy210 but not Oxy133”. Further, in the data set with SARS-CoV-2 [1] (24 h), the “viral RNA, compound present during the whole life cycle” value is on record as “but not the negative control, Oxy133, clearly reduced viral RNA levels”. In addition, the “viral RNA, compound present post-entry” value in the data set with SARS-CoV-2 [1] (added 2 h post-inoculation for 21 h) was “but not the negative control, Oxy133, clearly reduced viral RNA levels”. In addition, in the data set with SARS-CoV-2 Wk-521 strain, the “viral RNA in the culture supernatant” value is reported as “did not show antiviral activity up to 15 μM”, the negative-log IC50 (pIC50) was less than 4.82 and the IC90 was greater than 15 µM. The CC50 in the data set on VeroE6/TMPRSS2 cells was greater than 15 µM.

Regarding `CC(C)[C@@H](O)CC[C@@H](C)[C@H]1CC[C@H]2[C@@H]3CC=C4C[C@@H](O)CC[C@]4(C)[C@H]3CC[C@]12C` [24(S)-OHC, 24(S)-hydroxycholesterol, reference compound], the IC90 in the data set on SARS-CoV-2 Wk-521 strain (setting [4]) was greater than 30 µM. Moreover, the pIC50 with SARS-CoV-2 Wk-521 strain (setting [5]) was 5.89. Further, in the data set on SARS-CoV-2 Wk-521 strain, the “anti-SARS-CoV-2 activity” value is on record as “modest anti-SARS-CoV-2 activities” and the “SARS-CoV-2 propagation in cultured cells” value is given as “substantially inhibited SARS-CoV-2 propagation”. Moreover, the CC50 in the data set with VeroE6/TMPRSS2 cells was greater than 30 µM.

Regarding `CC(C)CC[C@@H](O)[C@@H](C)[C@H]1CC[C@H]2[C@@H]3CC=C4C[C@@H](O)CC[C@]4(C)[C@H]3CC[C@]12C` [22(R)-OHC, 22(R)-hydroxycholesterol, reference compound], in the data set with SARS-CoV-2 Wk-521 strain (setting [4]), the IC90 is greater than 30 µM. For the same compound, the pIC50 in the data set with SARS-CoV-2 Wk-521 strain (setting [5]) was 4.88. In the data set on SARS-CoV-2 Wk-521 strain, the “anti-SARS-CoV-2 activity” value is reported as “modest anti-SARS-CoV-2 activities” and the “SARS-CoV-2 propagation in cultured cells” value was “substantially inhibited SARS-CoV-2 propagation”. Besides, the half-maximal cytotoxic concentration (CC50) in the data set on VeroE6/TMPRSS2 cells was greater than 30 µM.

As for `CC(C)CCC[C@@H](C)[C@H]1CC[C@H]2[C@@H]3CC=C4C[C@@H](O)CC[C@]4(C)[C@H]3CC[C@]12C` [Cholesterol, reference compound], the “virus-induced CPE” value in the data set with SARS-CoV-2 [2] is “but not cholesterol, reduced the SARS-CoV-2-induced CPE”. The “viral RNA in the culture supernatant” value in the data set with SARS-CoV-2 Wk-521 strain is reported as “did not show apparent reductions in viral RNA”. The 90% effect concentration (IC90) in the data set on SARS-CoV-2 Wk-521 strain (setting [4]) is greater than 30 µM. The pIC50 with SARS-CoV-2 Wk-521 strain (setting [5]) is less than 4.52. In the data set with VeroE6/TMPRSS2 cells, this compound showed a 50% cytotoxic concentration (CC50) greater than 30 µM.

As for `NC(=O)c1ccc(-c2nc(-c3ccc4c(c3)OCO4)c(-c3ccccn3)[nH]2)cc1` [SB431542, reference compound], in the data set on SARS-CoV-2 Wk-521 strain, the “production of viral RNA with signaling pathway inhibitors” value is reported as “did not significantly inhibit the production of viral RNA; also recorded: lack of antiviral activity”.

With `CC(C)CCC[C@@H](C)[C@H]1CC[C@H]2[C@@H]3CC=C4[C@@H](O)[C@@H](O)CC[C@]4(C)[C@H]3CC[C@]12C` [Oxy 4-beta-OHC, 4beta-hydroxysterol, reference compound], in the data set on SARS-CoV-2 Wk-521 strain, the “viral RNA in the culture supernatant” value is “did not show apparent reductions in viral RNA”, the negative logarithm of the IC50 (pIC50) was less than 4.52 and the 90% effect concentration (IC90) was greater than 30 µM. This compound gave a CC50 in the data set on VeroE6/TMPRSS2 cells greater than 30 µM.

For the origin of these results see US20230364111A1 (priority 2020, published 2023).
